# Marks after values point to notes of the source that are not given here.
# Experiments:
# [1] = tested on: Rabbit Dry-eye Syndrome Model, which was Induced by Trigeminal Denervation; assay: Basal tear secretion in rabbit dry-eye syndrome model induced by trigeminal denervation (Test Example 2); format: in vivo, male Japanese albino rabbits (Std:JW/CSK); details: for basal tear secretion: 5 eyes
# Experimental: (§1) Fifteen male Japanese albino rabbits (Std:JW/CSK) were used.
# (§2) (2) Generating Rabbit Dry-eye Syndrome Model by Trigeminal Denervation.
# (§3) Urethane (ALDRICH) was administered i.p. at the dose of 1 g/kg to the rabbits of which occipital hair had been shaved.
# (§4) After disinfecting of the shaved area, midline incision of the skin was made from the frontal bone to the ear root, and the muscular tissue around the periosteum, temporal bone and manidibular articular process were detached. After the detachment, a hole of 2×1.5 cm in size was made in the bone from the parietal medial region to the temporal region by means of the bone drill (URAWA KOGYO Co., Ltd. MINITOR C-130) under the surgical microscope (KONAN CAMERA R&I Inc., PMO-50). Then, the dura was detached from the cranial bone while cotton bud was kept inserted between the temporal bone and the dura. After the detachment was made up to the cranial base, detachment was further made toward the medial border of the petrous part of temporal bone in the carnial cavity, to find the trigeminal nerve in the petrous part. Then, the dura of about 1 to 2 mm on the nasal side of the semilunar ganglion was incised. After the incision, the two branches of nerve fascicle, i.e. the first branch (ocular nerve) of the trigeminal nerve and the second branch (maxillary nerve) were pulled laterally and cut with corneoscleral scissors. Immediately after the operation, miosis of the ipsilateral eye was confirmed and then the cotton kept inserted was removed, and the skin at the head was closed with suture. After the operation, an antibiotic (MYCILLIN SQL® Meiji) was administered i.m. at the dose of 0.1 ml/kg.
# (§5) The trigeminal denervation was made only on the left eye side, while on the right eye side, no trigeminal denervation nor sham operation was made.
# (§6) (3) Method of Administration.
# (§7) 13,14-dihydro-15-keto-16,16-difluoro-PGE1 was used as an active ingredient of the present invention to prepare test eyedrops containing 0.0001% and 0.001% of the compound. As a control, the vehicle of the eyedrops without the active ingredient was used.
# (§8) Each of the compositions was instilled to the eyes everyday at the volume of 30 μl/eye two times a day (at 10:00 and 18:00) for two weeks. Five eyes per each of the test groups and the control group were treated and then examined for the whole tear secretion, the basal tear secretion and the keratoepithelial lesion as follows.
# Before the start of the instillation (week 0), and 1, 2, and 3 weeks after the start, the basal tear secretion was measured 2 hours after the 1st instillation on the day of the examination.
# Keratoconjunctiva was anesthetized by instillation of 4% lidocaine (Xylocalne® 4% for ophthalmic solution; Fujisawa Pharmaceutical Co., Ltd.), the eye drops and the tear around the eyelid were wiped off about 5 minutes after and loss of keratoconjunctival esthesia was confirmed with the Cochet-Bonnet type esthesiometer. Then, one edge of the Shirmer's test strip was inserted into the conjunctival sac and kept there for 5 minutes. The length of the moistened part was read from the scale on the strip.
# The basal tear secretion was expressed by mean value per minute calculated from the 4-minutes value obtained by subtracting the initial 1-minute value from the 5-minutes Sirmer's test, so that the spontaneous volume of the tear retained in the conjunctival sac might be excluded.
# rats (SD strain) = assay: Exaltation of salivation, salivary weight on paper filter (Test Example 4); format: in vivo, Male rats (SD strain); details: 1.0 mg/kg orally once a day for 10 days
# Experimental: The effect of the composition of the present invention on salivary secretion was determined. (1) Test Animals Male rats (SD strain) were used. Each of the test and control groups contains 8 animals. (2) Method of Administration 13,14-dihydro-15-keto-16,16-difuloro-PGE1 was used as an active ingredient of the present invention to prepare test solution containing 0.2 mg/ml of the compound. 5 ml/kg of the solution (1.0 mg/kg of the compound) was forcedly administrated orally once a day. For the animals f control group, 5 ml/kg of vehicle without the active ingredient was administrated once a day. The administration was continued for 10 days. (3) Examination The amount of the saliva of the test group and control group was measured one hour after the administration on 10th day. The edge of a paper filter (Schirmer's test strip, Showa Yakuhin Kako Co., Ltd.) was inserted between lower gingiva and mandibula. Three minutes after, the paper filter was removed and the weight of the saliva was calculated by the following formula. weight of saliva=(the weight of paper filter including saliva)−(weight of only paper filter) (4) Result
# normal rabbits = assay: Effect on whole tear secretion of normal rabbits (Schirmer's test, Test Example 1); format: in vivo, Male Japanese albino rabbits (Std:JW/CSK); details: for whole tear secretion: 30 μl/eye single instillation, 8 eyes
# Experimental: Male Japanese albino rabbits (Std:JW/CSK) were used.
# (2) Method of Administration
# Ophthalmic solution comprising 0.001% of 13,14-dihydro-15-keto-16,16-difluoro-PGE1 as an active ingredient of the present invention was prepared and used as a test composition. As a control, the vehicle of said solution without the active ingredient was used.
# Each of the compositions was instilled singly to eight eyes at the amount of 30 μl/eye. After the administration, the time course of the tear secretion change was examined according to the following method.
# Before (0 hour) and 0.5, 2, 4, and 6 hours after the instillation, the whole tear secretion was determined.
# Under no anesthetization, one edge of the Schirmer's test strip (Showa Yakuhin Kako Co., Ltd., Lot No. 70080) was inserted into the conjunctival sac of the each test animal. One minute after, the strip was removed and the length of the moisted part was read from the scale provided on the strip to determine the amount of whole tear secretion.
# [2] = tested on: Rabbit Dry-eye Syndrome Model, which was Induced by Trigeminal Denervation; assay: Keratoepithelial lesion score in rabbit dry-eye syndrome model induced by trigeminal denervation (Test Example 2); format: in vivo, male Japanese albino rabbits (Std:JW/CSK); details: for Keratoepithelial lesion: score 0-4 by stained area (Table 2), 5 eyes
# Experimental: as §1, §2, §3, §4, §5, §6, §7, §8
# iii) Keratoepithelial Lesion
# Before the start of instillation (week 0) and 1, 2, and 3 weeks after the start, the keratoepithelial lesion was evaluated two hours after the first instillation on the day of examination.
# Each animal was placed in a stainless steel fixator, and given instillation of 50 μl of the mixture of 1% rose bengal and 1% fluorescein to stain their keratoconjunctival epithelium.
# [3] = 0.0001% eyedrops 30 μl/eye two times a day for two weeks, week 1
# [4] = 0.0001% eyedrops 30 μl/eye two times a day for two weeks, week 2
# [5] = 0.0001% eyedrops 30 μl/eye two times a day for two weeks, week 3
# [6] = 0.001% eyedrops 30 μl/eye two times a day for two weeks, week 1
# [7] = 0.001% eyedrops 30 μl/eye two times a day for two weeks, week 2
# [8] = 0.001% eyedrops 30 μl/eye two times a day for two weeks, week 3
# [9] = dry-eye syndrome model animals, 0.0001% and 0.001% eyedrops
# [10] = test group 0.0001% eyedrops, before administration (after operation, baseline)
# [11] = test group 0.001% eyedrops, before administration (after operation, baseline)
structure (smiles),measurement,setting,value
"CCCCC(F)(F)C(=O)CCC1C(O)CC(=O)C1CCCCCCC(=O)O (stereo not drawn) [13,14-dihydro-15-keto-16,16-difluoro-PGE1]",basal tear secretion,[1]; [3],1.53 ± 0.26^[+] mm/min.
same,basal tear secretion,[1]; [4],1.60 ± 0.11**^++ mm/min.
same,basal tear secretion,[1]; [5],1.48 ± 0.17^#[++] mm/min.
same,basal tear secretion,[1]; [6],2.00 ± 0.12*^##++ mm/min.
same,basal tear secretion,[1]; [7],2.00 ± 0.18*^##++ mm/min.
same,basal tear secretion,[1]; [8],2.00 ± 0.14*^##++ mm/min.
same,decreased basal tear secretion (result in words),[1]; [9],improved
same,basal tear secretion,[1]; [10],0.43 ± 0.06^[**^] mm/min.
same,basal tear secretion,[1]; [11],0.43 ± 0.08 mm/min.
same,salivary secretion (result in words),rats (SD strain); compared with the control group,significantly increased
same,Salivary weight (mean ± S.E.),"rats (SD strain); one hour after the administration on 10th day, paper filter 3 minutes, 8 animals",18.1 ± 5.6 mg
same,whole tear secretion,"normal rabbits; 0.001% ophthalmic solution, 0.5 hr after",17.0 ± 0.5 mm/min.
same,whole tear secretion,"normal rabbits; 0.001% ophthalmic solution, 2 hr after",14.1 ± 0.5 mm/min.
same,whole tear secretion,"normal rabbits; 0.001% ophthalmic solution, 4 hr after",11.7 ± 0.6 mm/min.
same,whole tear secretion,"normal rabbits; 0.001% ophthalmic solution, 6 hr after",10.5 ± 1.0 mm/min.
same,amount of whole tear secretion (result in words),"normal rabbits; 0.001% ophthalmic solution, versus control group",significant increase
same,"stimulating response, such as rubor in the front of the eye","normal rabbits; after instillation of 0.001% ophthalmic solution, 30 μl/eye",No stimulating response
same,whole tear secretion,"normal rabbits; test group 0.001% ophthalmic solution, before the administration (baseline)",5.3 ± 0.2 mm/min.
same,Keratoepithelial lesion,[2]; [3],1.00 ± 0.27^[*^]++ score
same,Keratoepithelial lesion,[2]; [4],0.50 ± 0.16^[*^]++ score
same,Keratoepithelial lesion,[2]; [5],0.40 ± 0.19^#++ score
same,Keratoepithelial lesion,[2]; [6],0.70 ± 0.34^++ score
same,Keratoepithelial lesion,[2]; [7],0.10 ± 0.10^[++] score
same,Keratoepithelial lesion,[2]; [8],0.10 ± 0.10^[##][++] score
same,keratoconjunctival lesion accompanied by the decrease of the tear secretion (result in words),[2]; [9],improved
same,Keratoepithelial lesion,[2]; [10],3.00 ± 0.32^[**^] score
same,Keratoepithelial lesion,[2]; [11],3.00 ± 0.32^[**^] score
